Assay results: article PMC5686155, “Crystal structures of the mitochondrial deacylase Sirtuin 4 reveal isoform-specific acyl recognition and regulation features” (Nature Communications, 2017)
Values belong to the compound of their own block, whether it stands above or below them.

What was measured:
[1] = tested on: xSirt4; test: MS-based assay of metabolite effects on xSirt4 activity; type: biochemical, Xenopus tropicalis; conditions: n = 2 (Supplementary Fig. 3b)
Description: For MS and UV analyzes of deacylation reactions, samples were prepared as described for the coupled continuous assay, stopped by mixing 1:1 with 0.5% TFA after 0 and 60 min, diluted to 20 µM peptide using 0.1% FA, and analyzed by HPLC-separation using a Shimadzu Prominence UFLC (Shimadzu, Duisburg, Germany) coupled to ESI-MS and UV detection. Samples were washed on a Piccolo Proto 200 C4 5 μm 2.5 × 0.5 mm trap column (Higgins Analytical, Mountain View, California) and subsequently subjected to a Jupiter C4 5 μm 300 Å 150 × 1 mm analytical column (Phenomenex, Torrance, California) for reversed phase separation, with 99.9% H2O, 0.1% TFA as buffer A and 99.9% ACN, 0.1% TFA as buffer B. Peptides were eluted over a 20 min gradient from 1 to 55% buffer B, followed by 1 min from 55 to 90% buffer B with 70 µL min^−1 flow-rate. […] We detected in a mass range from 300 to 2500 m/z. […]
Supplementary Figure 3. […] (n=2; error bars: s.d.) e, Inner surfaces of the nucleotide binding sites of Sirt1-6, colored by electrostatic potential calculated with APBS2.1 in PyMOL using PDB IDs 4KXQ (Sirt1), 5D7O (Sirt2), 4BN4 (Sirt3), our xSirt4 structure, PDB IDs 3RIY (Sirt5) and 3K35 (Sirt6). […] The surfaces are colored according to electrostatic potential (red/-15 to blue/+15 kBT/e). f, xSirt4 surface colored by electrostatic potential calculated using APBS2.1 in PyMOL (red/-15 to blue/+15 kBT/e). […]

[2] = tested on: xSirt4; test: Thermal denaturation shift assay; type: binding, Xenopus tropicalis; conditions: 3 µM xSirt4, SYPRO orange, 20 to 73 °C; n = 2
Description: Thermal shift assays were performed in 96-well PCR plates using 3 µM xSirt4 (32–315) or 3 µM zSirt4 (29–310) and SYPRO orange (Thermo Fisher, Waltham, MA, USA) covered with 15 µL mineral oil. Heating and fluorescence measurements were performed in a FluoDia T70 with 1 K steps from 20 to 73 °C (excitation: 465 nm, emission: 580 nm). The data were analyzed in GraFit (Erithacus Software Ltd, Horley, UK) by nonlinear fitting using a two state model.

[3] = Non-enzymatic acylation of CPS1 peptide by acyl-CoA (titration); conditions: HMG-CoA titrations
[4] = molecular target: T1, Cyclophilin A (CypA) (Homo sapiens, UniProt P62937); test: HMG-CoA modification of recombinant Cyclophilin A, intact protein MS; conditions: CypA 0.4 mg/ml, 8 mM HMG-CoA, 100 mM Tris-HCl pH 8.3, 37 °C, 4 h
T1 construct: expression of a full-length CypA construct in pQE70 (Qiagen) in E. coli M15 cells; made in house; host or cells: E. coli M15
T1 sequence (P62937 whole entry): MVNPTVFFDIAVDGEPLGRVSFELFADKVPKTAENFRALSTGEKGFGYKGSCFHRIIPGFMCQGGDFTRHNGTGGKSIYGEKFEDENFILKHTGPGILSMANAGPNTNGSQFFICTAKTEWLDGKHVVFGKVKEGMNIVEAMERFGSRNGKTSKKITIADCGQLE
Description: The recombinant CypA was prepared through expression of a full-length CypA construct in pQE70 (Qiagen) in E. coli M15 cells and purification by ion exchange chromatography on Fractogel EMD DEAE-650(M), Fractogel TSK AF-Blue, and Fractogel SO3–650(M) (Merck Millipore)[29]. CypA protein (0.4 mg ml^−1) was modified using 8 mM HMG-CoA in 100 mM Tris-HCl buffer pH 8.3 at 37 °C for 4 h. Formation of HMG-ylated protein was confirmed by peptide-MS analyzes after tryptic digest, and by intact HMG-CypA mass analyzes through HPLC-coupled ESI-MS[56]. For intact mass determination, 25 µM HMG-CypA in 10 mM Tris/HCl pH 7.5, 50 mM NaCl was HPLC-separated with the setting described below for peptide MS, using a 30 min gradient from 1 to 55% buffer B (90% ACN, 9.9% H2O, 0.1% FA; buffer A: 5% ACN, 94.9% H2O, 0.1% FA) followed by 1 min of 55–90% buffer B with 70 µL min^−1 flow-rate. MS-analyzes were done with the settings described for peptide assays (below), except that the IntactProtein script was activated, which reduces CEM to 100. Acquired data were extracted with PeakView and deconvoluted in MassLynx in the range of 950–1500 m/z using the MaxEnt I algorithm to a resolution of 1 Da. Peak intensity values were recorded and overlaid using MassLynx.

[5] = molecular target: T2, hSirt4 (Homo sapiens, UniProt Q9Y6E7); test: HMG-FdL (Fluor-de-Lys-like) de-HMG-ylation assay; type: biochemical
T2 construct: hSirt4(25–314) in pQE30 coding for an N-terminal His6-tag; His6 (N); made in house; host or cells: Escherichia coli CodonPlus(DE3)
T2 sequence (Q9Y6E7 25-314): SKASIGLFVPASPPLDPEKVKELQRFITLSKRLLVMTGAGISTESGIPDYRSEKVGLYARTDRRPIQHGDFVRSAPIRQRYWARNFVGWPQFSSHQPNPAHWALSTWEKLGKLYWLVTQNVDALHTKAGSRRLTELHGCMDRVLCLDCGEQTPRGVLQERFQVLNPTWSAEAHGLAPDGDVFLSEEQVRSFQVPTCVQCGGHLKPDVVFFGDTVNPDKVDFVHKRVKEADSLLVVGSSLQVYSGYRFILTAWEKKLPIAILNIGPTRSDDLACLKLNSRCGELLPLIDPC
Description: As a convenient and complementary, fluorescence-based alternative to the coupled enzymatic assay with HMG-peptides, we established substrate and assay corresponding to the popular “Fluor-de-Lys” (FdL) deacylation assays. […] We then employed the FdL-like Sirt4 assay for studying the effects of NAM and NADH, which are not compatible with the coupled assay. […] After 20 min, developer solution (2 mM NAM and 10 mg mL^−1 trypsin) in assay buffer was added 1:1 and samples were incubated for 45 min at room temperature. Fluorescence was measures using a FluoDia T70 with excitation wavelength 365 nm and emission wavelength 465 nm.

[6] = molecular target: T2, hSirt4; test: Coupled continuous enzymatic assay monitoring NAM release from NAD+ (Sirt4 deacylation); type: biochemical; conditions: coupled enzymatic assay; for effect on Sirt4 de-HMG-ylation activity: HMG-CPS1 peptide; for Sirt4 deacylation signal with CypA protein as substrate: increasing amounts of protein substrate, n = 2 (Fig. 1f)
Description: The seven mammalian sirtuins vary in their sequence and acyl preferences[16],[19]. […] We therefore asked whether other acyl modifications would yield deacylation efficiencies expected for a physiologically dominant Sirt4 activity.
The coupled continuous assay was performed as reported. […] Reactions were monitored in microplates at room temperature for 1 h through absorption measurements at 340 nm in a LAMBDAScan plate reader (MWG Biotech, Ebersberg, Germany).

[7] = non-enzymatic; cited from earlier work
Source text: Acetyl transferases employ acetyl-CoA for modifying proteins. However, acetyl-CoA can also non-enzymatically modify proteins, and some other acyl-CoA, such as succinyl-CoA, do so even more efficiently, likely causing the emerging variety of protein acylations[14],[28],[29],[31]. We thus analyzed whether HMG-CoA efficiently acylates peptides and proteins.

[8] = 10 and 100 μM compound, n = 2 (Fig. 4a)

Compound: O=C(O)CCCC[C@@H]1CCSS1 (racemic) [lipoic acid]
effect on Sirt4 de-HMG-ylation activity [1]: inhibits | effect on Sirt4 deacetylation activity [1]: inhibits

Compound: Nc1ncnc2c1ncn2[C@@H]1O[C@H](COP(=O)(O)OP(=O)(O)OC[C@H]2OC(O)[C@H](O)[C@@H]2O)[C@@H](O)[C@H]1O (some centres unmarked) [ADPr, ADP-ribose]
Sirt4 stabilization in thermal denaturation shift experiments [2]: significant Sirt4 stabilization

number of HMG-modifications on CypA [4]: 1–7
Compound: CC(C)(CO[P@@](=O)(O)O[P@@](=O)(O)OC[C@H]1O[C@@H](n2cnc3c(N)ncnc32)[C@H](O)[C@@H]1OP(=O)(O)O)[C@@H](O)C(=O)NCCC(=O)NCCSC(=O)C[C@@](C)(O)CC(=O)O [HMG-CoA]
bimolecular rate constant of CPS1 peptide acylation [3]: (4.0 ± 0.8)×10^–10 μM^−1 s^−1

acceptance as Sirt4 substrate ([5]; FdL procedure, fluorescence): readily accepted by Sirt4
Compound: Cc1cc(=O)oc2cc(NC(=O)[C@H](CCCCNC(=O)CC(C)(O)CC(=O)O)NC(=O)OCc3ccccc3)ccc12 (stereo partly drawn) [HMG-FdL substrate, 5-(((S)−5-(((benzyloxy)carbonyl)amino)-6-((4-methyl-2-oxo-2H-chromen-7-yl)amino)-6-oxohexyl)amino)-3-hydroxy-3-methyl-5-oxopentanoic acid]

Compound: NC(=O)c1cccnc1 [NAM, nicotinamide]
Sirt4 stabilization in thermal denaturation shift experiments [2]: no pronounced effects

effect on Sirt4 de-HMG-ylation activity ([6]; 100 μM compound, high error, effect already in control reaction (assay incompatibility)): weak signal decrease | effect on Sirt4 activity in HMG-FdL assay ([5]; 1 µM hSirt4, 500 µM HMG-FdL substrate, 500 µM NAD+, n = 2 (Fig. 4c)): no effect on Sirt4 activity
Compound: O=C(Nc1ccccc1-c1cn2c(CN3CCNCC3)csc2n1)c1cnc2ccccc2n1 [SRT1720]

Compound: CC(=O)SCCNC(=O)CCNC(=O)[C@H](O)C(C)(C)COP(=O)(O)OP(=O)(O)OC[C@H]1O[C@@H](n2cnc3c(N)ncnc32)[C@H](O)[C@@H]1OP(=O)(O)O [acetyl-CoA]
bimolecular rate constant k of CPS1 peptide acylation [7]: (1.5 ± 0.4)×10^–10 μM^−1 s^−1

effect on Sirt4 de-HMG-ylation activity [6, 8]: no significant effect
Compound: Oc1ccc(/C=C/c2cc(O)cc(O)c2)cc1 [resveratrol]

Compound: CC(NC(=O)c1ccccc1/N=C/c1c(O)ccc2ccccc12)c1ccccc1 (centres unmarked) [sirtinol]
effect on Sirt4 de-HMG-ylation activity [6, 8]: no significant effect

Compound: HMG-CypA: recombinant Cyclophilin A modified with HMG-CoA (1–7 HMG-modifications)
Sirt4 deacylation signal with CypA protein as substrate [6]: strong, substrate concentration dependent signal

Compound: Unmodified CypA: recombinant Cyclophilin A, untreated
Sirt4 deacylation signal with CypA protein as substrate [6]: did not yield a significant deacylation signal
